Data as given in patent US12582670B2, “Lignin solvation using aqueous biologically compatible buffers” (priority 2019, dated 2026).
Entries after “also recorded” stand apart in the source; their conditions may differ.

Columns and labels:
[1] = tested on: S. agalactiae (NCTC 8181); experiment: β-lactam disk diffusion susceptibility test with and without lignin; type: cell-based, Streptococcus agalactiae; conditions: disks 10 μg penicillin, 10 μg ampicillin, 30 μg amoxicillin+clavulanic acid, 24 h
Method: (§1) Example 13. Sensitivity of S. agalactiae and S. uberis to β-lactams and lignin. Type strains of S. agalactiae and S. uberis Diemhofer (NCTC 8181 and NCTC 3858, respectively) were obtained from the American Type Culture Collection (ATCC) as lyophilized pellets. Cells were revived by resuspension in 5 mL Todd Hewitt broth (THB, 3% w/v) and static incubation for 24 h at 37° C. Culture OD600 was measured and the volume to achieve OD600=0.025 was added to 50 mL fresh THB in 250 mL Erlenmeyer flasks and grown for 2 hours; S. agalactiae cultures were supplemented with 1 μM hemin and 10 μM menaquinone and grown at 37° C. and 200 rpm, while S. uberis was grown statically at 37° C. Cultures were centrifuged at 4500 rpm for 10 minutes. Due to differences in pellet sizes, S. agalactiae pellets were resuspended in 1 mL Hank's Balanced Salt Solution (HBSS), and S. uberis pellets were resuspended in 400 μL HBSS in order to normalize the OD600 of the two cell suspensions. […] Paper disks containing 10 μg penicillin, 10 μg ampicillin, and 30 μg amoxicillin+clavulanic acid (Oxoid, Basingstoke, UK) were placed on the agar, then incubated for 24 h at 37° C. Plates were inspected for zones of clearance around the disks indicating susceptibility.

[2] = tested on: S. aureus LAC-13C (methicillin-resistant, MRSA); experiment: β-lactam disk diffusion susceptibility test; type: cell-based, Staphylococcus aureus; conditions: disks 1 μg oxacillin, 10 μg ampicillin, 10 μg penicillin, 24 h
Method: (§2) Example 9. β-lactam disk diffusion susceptibility test. […] Methicillin-susceptible and methicillin-resistant S. aureus, UAMS-1 and LAC-13C, respectively, were streaked for isolation on tryptic soy agar (TSA) plates and incubated for 24 hours at 37° C. Overnight cultures were prepared by picking a single colony of each strain from its plate and adding to separate 3 mL sterile tryptic soy broth (TSB) in a 5 mL culture tube and incubating 14-16 h at 37° C. and 250 rpm. Next, the optical density at 600 nm (OD600) was measured to prepare fresh 50 mL cultures with OD600=0.1 to be grown for 2-3 hours at 37° C. and 250 rpm. Cultures were pelleted by centrifugation at 4500 rpm, then resuspended and concentrated in 500 μL sterile 1× Hank's Balanced Salt Solution (HBSS). […] To achieve lawn-style growth, cells were spread across the plates with sterile glass beads.

[3] = tested on: S. aureus UAMS-1 (methicillin-sensitive, MSSA); experiment: β-lactam disk diffusion susceptibility test; type: cell-based, Staphylococcus aureus; conditions: disks 0.2 μg oxacillin, 2 μg ampicillin, 2 μg penicillin, 24 h
Method: as §2

[4] = tested on: S. uberis Diemhofer (NCTC 3858); experiment: β-lactam disk diffusion susceptibility test with and without lignin; type: cell-based, Streptococcus uberis; conditions: disks 10 μg penicillin, 10 μg ampicillin, 30 μg amoxicillin+clavulanic acid, 24 h
Method: as §1

[5] = tested on: S. aureus UAMS-1; experiment: Tunicamycin disk diffusion assay; type: cell-based, Staphylococcus aureus; conditions: 2 μg disk, 24 h
Method: Tunicamycin disk diffusion assay: S. aureus UAMS-1 cultures were prepared by inoculating separate 15-mL culture tubes containing 3 mL sterile 3% (w/v) TSB with a single colony and incubated 14-16 h at 37° C. while shaking at 250 rpm. Fresh 50-mL cultures with an initial OD600=0.025 were prepared and incubated for 2 h at 37° C. and 250 rpm. Cells were collected by centrifugation at 4,500 rpm and resuspended in 500 μL sterile Hank's Balanced Salt Solution (HBSS; Corning, Corning, NY). […] Cells were spread across the plates with sterile glass beads and the plates were left open to dry in a clean laminar-flow hood for 10-15 min. […] Three biological replicates were analyzed.

[6] = in the presence of 5 mg/mL lignin
[7] = TSA with 50 mM MOPS and 5 mg/mL lignin
[8] = TSA without lignin (50 mM MOPS)

| Compound | sensitivity (zone of clearance around disk) [1, 6] | sensitivity (zone of clearance around disk) ([1]; without lignin (50 mM MOPS)) | susceptibility (zone of clearance around disk) [2, 7] | susceptibility (zone of clearance around disk) [3, 7] | susceptibility (zone of clearance around disk) [3, 8] | sensitivity (zone of clearance around disk) [4, 6] | sensitivity (zone of clearance around disk) ([4]; without lignin (50 mM MOPS)) | zone of clearance around disk ([5]; TSA with 50 mM MOPS + 5 mg/mL lignin) | zone of clearance around disk ([5]; TSA with 50 mM MOPS + 5 mg/mL lignin, listed as Tunicamycin) | zone of clearance around disk ([5]; TSA with 50 mM MOPS, no lignin) | zone of clearance around disk ([5]; TSA with 50 mM MOPS, no lignin, listed as Tunicamycin) | susceptibility (zone of clearance around disk) [2, 8] |
| --- | --- | --- | --- | --- | --- | --- | --- | --- | --- | --- | --- | --- |
| CC1(C)S[C@@H]2[C@H](NC(=O)[C@H](N)c3ccccc3)C(=O)N2[C@H]1C(=O)O [ampicillin] | highly sensitive | some susceptibility; also recorded: moderately sensitive | increased sensitivity/susceptibility | at least partially sensitive/susceptible; also recorded: increased sensitivity/susceptibility | completely or nearly completely resistant; also recorded: moderately resistant | highly sensitive | some susceptibility; also recorded: moderately sensitive |  |  |  |  |  |
| tunicamycin |  |  |  |  |  |  |  | susceptibility | a clearance zone was observed | tolerance of the antibiotic | No clearance zone was observed |  |
| amoxicillin+clavulanic acid | highly sensitive | some susceptibility; also recorded: moderately sensitive |  |  |  | highly sensitive | some susceptibility; also recorded: moderately sensitive |  |  |  |  |  |
| Cc1onc(-c2ccccc2)c1C(=O)N[C@@H]1C(=O)N2[C@@H]1SC(C)(C)[C@@H]2C(=O)O [oxacillin] |  |  | sensitive; also recorded: increased sensitivity/susceptibility | increased sensitivity/susceptibility | sensitive/susceptible |  |  |  |  |  |  | completely resistant |
| penicillin | highly sensitive | some susceptibility; also recorded: moderately sensitive | increased sensitivity/susceptibility | at least partially sensitive/susceptible; also recorded: increased sensitivity/susceptibility | completely or nearly completely resistant; also recorded: moderately resistant | highly sensitive | some susceptibility; also recorded: moderately sensitive |  |  |  |  |  |
